The values below come from ChEMBL document CHEMBL1201862, “PubChem BioAssay data set” (2004).

Activity calls are given as the source filed them. Cut-off read from the data, not from the text of the source, for most assays here: actives have a measured EC50 and inactives only a lower limit.

The test system of test [1] is Streptococcus sp. 'group A'. As to the kind of experiment: growth inhibition of control SK(-) GAS strain, dose response, counter-screen for streptokinase expression inhibitor project, luminescence, kanamycin, BacTiterGlo, confirmation (AID 1900). Type of test: functional, organism-based. Background: Counterscreens check selectivity or assay interference.
The subject of the next test is Streptococcus. The test can be described thus: Group A Streptococcus viability loss, dose response, counter-screen for streptokinase expression inhibitor project, luminescence, BacTiterGlo (AID 1915).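 Note: potency for reduction of bacterial viability or growth.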 Type of test: functional, organism-based.
The next test concerns the target T1, Hexokinase HKDC1 (Homo sapiens, UniProt Q2TB90).
T1 sequence (Q2TB90 whole entry): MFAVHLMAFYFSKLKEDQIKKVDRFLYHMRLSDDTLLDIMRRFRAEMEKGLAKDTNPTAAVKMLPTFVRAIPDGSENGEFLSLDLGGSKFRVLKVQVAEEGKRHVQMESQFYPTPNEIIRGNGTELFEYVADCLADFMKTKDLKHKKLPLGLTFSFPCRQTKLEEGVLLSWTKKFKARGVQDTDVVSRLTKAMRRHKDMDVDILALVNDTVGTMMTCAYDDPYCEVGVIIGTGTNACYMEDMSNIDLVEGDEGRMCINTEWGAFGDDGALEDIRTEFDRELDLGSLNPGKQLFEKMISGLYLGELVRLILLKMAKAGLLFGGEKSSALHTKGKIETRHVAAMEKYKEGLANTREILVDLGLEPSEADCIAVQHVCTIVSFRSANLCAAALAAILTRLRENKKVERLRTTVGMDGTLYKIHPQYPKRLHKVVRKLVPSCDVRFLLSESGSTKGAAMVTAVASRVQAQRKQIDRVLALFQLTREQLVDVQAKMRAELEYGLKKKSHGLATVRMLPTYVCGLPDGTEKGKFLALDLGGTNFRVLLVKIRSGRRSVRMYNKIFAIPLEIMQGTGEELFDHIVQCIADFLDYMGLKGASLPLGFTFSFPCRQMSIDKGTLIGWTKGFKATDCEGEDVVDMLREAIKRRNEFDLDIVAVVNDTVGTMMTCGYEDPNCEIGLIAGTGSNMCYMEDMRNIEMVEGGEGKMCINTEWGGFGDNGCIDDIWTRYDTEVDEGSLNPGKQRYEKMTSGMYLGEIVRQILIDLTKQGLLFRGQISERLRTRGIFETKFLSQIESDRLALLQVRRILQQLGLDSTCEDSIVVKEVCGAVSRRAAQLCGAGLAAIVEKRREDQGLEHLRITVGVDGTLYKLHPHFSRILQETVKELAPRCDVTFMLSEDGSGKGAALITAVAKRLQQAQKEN
The test can be described thus: HKDC1 hexokinase inhibitors, dose response, biochemical, W721R variant (AID 504729). It is filed as functional.

Test [2] in a line: Intein inhibitors as potential Tuberculosis drugs, a cytotoxicity screen. [Related pubchem assays (depositor defined):AID2221, AID2223, AID434968, AID435010, AID449749, AID449750, AID489010]. It is filed as functional.
Test [3] in a line: Luminescence Cell-Based Dose Response HTS to Identify Inhibitors of 5'UTR Stem-Loop Driven Prion Protein mRNA Translation in H4 Neuroglioblastoma Cells. [Related pubchem assays: 1827 (Project Summary), 1813 (Primary HTS)]. Type of test: functional.
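Throughout, for CC50: cells exposed to compound for 72 hours before luminescence readout.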

The EC50 is the concentration giving half of the maximal effect. For orientation: IC50 means the concentration needed to halve the response being measured. Consider `CCc1ccc(S(=O)(=O)/N=C2\C=C(Nc3cccc(C(=O)O)c3)C(=O)c3ccccc32)cc1`, for which the EC50 in test [1] is 1.26 µM (active); with Streptococcus it was 1.9 µM (active). Further, on Hexokinase HKDC1, the half-maximal inhibitory concentration (IC50) was 4.78 µM (active).

The term CC50 denotes the concentration at which the toxic effect on the cells reaches its halfway point. `COc1cc2c(cc1OC)-c1c(OC)c(OC)cc3c1C(C2)N(C)CC3` (stereo not given): in test [2], the cytotoxic concentration (CC50) was > 40 µM (active).

In the case of `COc1cc(OC)c(NC2=CC(=O)C(=O)c3ccccc32)cc1Cl`, the EC50 in test [3] is 3.7 µM (active).
